Assay results from US20020137929A1, “1 - (3-heterocyclylphenyl) isothiourea, -isourea, -guanidine and -amidine herbicidal agents” (Intellectual Property Department, BASF Aktiengesellschaft, priority 1998, published 2002).

Experiments:
CYPIR (Rice Flatsedge) = experiment: Preemergence weed control under flooded paddy conditions; type: in vivo, Cyperus iria; conditions: rated 3-4 weeks after treatment
Procedure, shortened: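 Herbicidal effect is scored visually on a 0-9 scale against an untreated control, three to four weeks after compounds are pipetted into the flood water (1.5 to 3 cm deep) over seeds planted in silt loam at 0.5 cm depth. Rates: about 0.0313 to 0.500 kg/ha.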

ECHCG (Barnyardgrass) = experiment: Postemergence herbicidal evaluation; type: in vivo, Echinochloa crus-galli; conditions: postemergence
Procedure, shortened: (§1)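 First, seedlings were raised for around two weeks. Next, test material in 50/50 acetone/water containing 0.5% TWEEN 20 was sprayed through a nozzle at 40 psi, equivalent to about 0.0156–0.500 kg/ha. Finally, after 4–5 weeks in the greenhouse, plants were rated 0–9.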

[1] = system: TRZAWR (Wheat, Winter, cv Riband); experiment: Preemergence herbicidal evaluation; type: in vivo, Triticum aestivum; conditions: rated 4-5 weeks after treatment, rating scale 0-9
Procedure, shortened: (§2)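 Steps: mix seeds into potting soil; plant atop ~1 inch soil; spray compound in aqueous acetone (~0.0156-0.500 kg/ha equivalent); maintain in greenhouse with watering; rate visually 0-9 versus control at 4-5 weeks.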

ORYSAT (Rice, Tebonnet) [2] = experiment: Preemergence herbicidal evaluation; type: in vivo, Oryza sativa, (L.) Tebonnet; conditions: rated 4-5 weeks after treatment, rating scale 0-9
Procedure, shortened: as §2

[3] = system: SAGPY (Arrowhead (Pygmaea)); experiment: Preemergence weed control under flooded paddy conditions; type: in vivo, Sagittaria pygmaea; conditions: rated 3-4 weeks after treatment
Procedure, shortened: (§3)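 Seeds or propagules sown in top 0.5 cm of silt loam soil, flooded 1.5 to 3 cm above surface throughout. Compound in 50/50 v/v aqueous/acetone pipetted into flood water at about 0.0313 to 0.500 kg/ha. Visual 0-9 rating versus control after three to four weeks in greenhouse.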

MOOVA (Monochoria) = experiment: as above; type: in vivo, Monochoria vaginalis; conditions: rated 3-4 weeks after treatment
Procedure, shortened: as §3

GALAP (Galium) = experiment: Preemergence herbicidal evaluation; type: in vivo, Galium aparine; conditions: rated 4-5 weeks after treatment, rating scale 0-9
Procedure, shortened: as §2

SETVI (Foxtail, Green) = experiment: Preemergence herbicidal evaluation; type: in vivo, Setaria viridis; conditions: rated 4-5 weeks after treatment, rating scale 0-9
Procedure, shortened: as §2

[4] = system: CHEAL (Lambsquarters, Common); experiment: Postemergence herbicidal evaluation; type: in vivo, Chenopodium album; conditions: postemergence
Procedure, shortened: as §1

ZEAMX (Corn, Field) = experiment: Preemergence herbicidal evaluation; type: in vivo, Zea mays; conditions: rated 4-5 weeks after treatment, rating scale 0-9
Procedure, shortened: as §2

CASOB (Sicklepod) = experiment: Postemergence herbicidal evaluation; type: in vivo, Cassia obtusifolia; conditions: postemergence
Procedure, shortened: as §1

[5] = system: GLXMAW (Soybean, Williams); experiment: Preemergence herbicidal evaluation; type: in vivo, Glycine max, (L.) Merr. cv Williams; conditions: rated 4-5 weeks after treatment, rating scale 0-9
Procedure, shortened: as §2

ORYSAT (Rice, Tebonnet) [6] = experiment: Postemergence herbicidal evaluation; type: in vivo, Oryza sativa, (L.) Tebonnet; conditions: postemergence
Procedure, shortened: as §1

CN(C)c1ccc(CN2C(=O)CSC2=Nc2cc(-n3c(=O)cc(C(F)(F)F)n(C)c3=O)c(F)cc2Cl)cc1 [Compound 138, 3-{4-Chloro-5-{{3-[p-(dimethylamino)benzyl]-4-oxo-2-thiazolidinylidene}amino}-2-fluorophenyl}-1-methyl-6-(trifluoromethyl)-2,4(1H,3H)-pyrimidinedione]
3.0: herbicidal effect rating, CYPIR (CYPIR (Rice Flatsedge); 0.1250 kg/ha) | herbicidal effect rating, SAGPY ([3]; 0.2500 kg/ha) | Preemergence herbicidal rating SETVI (SETVI (Foxtail, Green); rate 0.1250 kg/ha) | Herbicidal rating ORYSAT (ORYSAT (Rice, Tebonnet) [6]; rate 0.0625 kg/ha)
7.0: herbicidal effect rating, MOOVA (MOOVA (Monochoria); 0.2500 kg/ha)
9.0: Herbicidal rating CHEAL ([4]; rate 0.0156 kg/ha) | Herbicidal rating CHEAL ([4]; rate 0.0313 kg/ha) | Herbicidal rating CHEAL ([4]; rate 0.0625 kg/ha)
5.0: herbicidal effect rating, CYPIR (CYPIR (Rice Flatsedge); 0.2500 kg/ha) | herbicidal effect rating, MOOVA (MOOVA (Monochoria); 0.0313 kg/ha)
2.0: herbicidal effect rating, CYPIR (CYPIR (Rice Flatsedge); 0.0313 kg/ha) | herbicidal effect rating, CYPIR (CYPIR (Rice Flatsedge); 0.0625 kg/ha) | Herbicidal rating ECHCG (ECHCG (Barnyardgrass); rate 0.0625 kg/ha) | Preemergence herbicidal rating SETVI (SETVI (Foxtail, Green); rate 0.2500 kg/ha)
1.0: Herbicidal rating ECHCG (ECHCG (Barnyardgrass); rate 0.0156 kg/ha) | Herbicidal rating ECHCG (ECHCG (Barnyardgrass); rate 0.0313 kg/ha) | Herbicidal rating CASOB (CASOB (Sicklepod); rate 0.0313 kg/ha) | Preemergence herbicidal rating GLXMAW ([5]; rate 0.2500 kg/ha)
1.5: Herbicidal rating ORYSAT (ORYSAT (Rice, Tebonnet) [6]; rate 0.0156 kg/ha)
6.0: herbicidal effect rating, MOOVA (MOOVA (Monochoria); 0.0625 kg/ha) | herbicidal effect rating, MOOVA (MOOVA (Monochoria); 0.1250 kg/ha) | Herbicidal rating CASOB (CASOB (Sicklepod); rate 0.0625 kg/ha)
4.0: Preemergence herbicidal rating GALAP (GALAP (Galium); rate 0.2500 kg/ha)
2.5: Herbicidal rating ORYSAT (ORYSAT (Rice, Tebonnet) [6]; rate 0.0313 kg/ha)
0.0: Preemergence herbicidal rating TRZAWR ([1]; rate 0.0156 kg/ha) | Preemergence herbicidal rating TRZAWR ([1]; rate 0.0313 kg/ha) | Preemergence herbicidal rating TRZAWR ([1]; rate 0.0625 kg/ha) | Preemergence herbicidal rating TRZAWR ([1]; rate 0.1250 kg/ha) | Preemergence herbicidal rating TRZAWR ([1]; rate 0.2500 kg/ha) | Preemergence herbicidal rating ORYSAT (ORYSAT (Rice, Tebonnet) [2]; rate 0.0156 kg/ha) | Preemergence herbicidal rating ORYSAT (ORYSAT (Rice, Tebonnet) [2]; rate 0.0313 kg/ha) | Preemergence herbicidal rating ORYSAT (ORYSAT (Rice, Tebonnet) [2]; rate 0.0625 kg/ha) | Preemergence herbicidal rating ORYSAT (ORYSAT (Rice, Tebonnet) [2]; rate 0.1250 kg/ha) | Preemergence herbicidal rating ORYSAT (ORYSAT (Rice, Tebonnet) [2]; rate 0.2500 kg/ha) | herbicidal effect rating, SAGPY ([3]; 0.0313 kg/ha) | herbicidal effect rating, SAGPY ([3]; 0.0625 kg/ha) | herbicidal effect rating, SAGPY ([3]; 0.1250 kg/ha) | Preemergence herbicidal rating GALAP (GALAP (Galium); rate 0.0156 kg/ha) | Preemergence herbicidal rating GALAP (GALAP (Galium); rate 0.0313 kg/ha) | Preemergence herbicidal rating GALAP (GALAP (Galium); rate 0.0625 kg/ha) | Preemergence herbicidal rating GALAP (GALAP (Galium); rate 0.1250 kg/ha) | Preemergence herbicidal rating SETVI (SETVI (Foxtail, Green); rate 0.0156 kg/ha) | Preemergence herbicidal rating SETVI (SETVI (Foxtail, Green); rate 0.0313 kg/ha) | Preemergence herbicidal rating SETVI (SETVI (Foxtail, Green); rate 0.0625 kg/ha) | Preemergence herbicidal rating ZEAMX (ZEAMX (Corn, Field); rate 0.0156 kg/ha) | Preemergence herbicidal rating ZEAMX (ZEAMX (Corn, Field); rate 0.0313 kg/ha) | Preemergence herbicidal rating ZEAMX (ZEAMX (Corn, Field); rate 0.0625 kg/ha) | Preemergence herbicidal rating ZEAMX (ZEAMX (Corn, Field); rate 0.1250 kg/ha) | Preemergence herbicidal rating ZEAMX (ZEAMX (Corn, Field); rate 0.2500 kg/ha) | Herbicidal rating CASOB (CASOB (Sicklepod); rate 0.0156 kg/ha) | Preemergence herbicidal rating GLXMAW ([5]; rate 0.0156 kg/ha) | Preemergence herbicidal rating GLXMAW ([5]; rate 0.0313 kg/ha) | Preemergence herbicidal rating GLXMAW ([5]; rate 0.0625 kg/ha) | Preemergence herbicidal rating GLXMAW ([5]; rate 0.1250 kg/ha)
